# Test results from patent US20250171461A1, “STIMULATOR OF INTERFERON GENES (STING) MODULATORS, AND COMPOSITIONS AND METHODS THEREOF” (Geode Therapeutics Inc., priority 2022, published 2025).
# Molecular target: T1, human HAQ STING isoform (hSTING HAQ) (Homo sapiens, UniProt Q86WV6, G230A/H232R/R293Q/R71H)
# T1 construct: THP1 cells express the naturally occurring human HAQ STING isoform (hSTING HAQ); host or cells: THP1
# Test: IFN-β mRNA level in THP1 cells (qPCR, STING agonist cellular activity)
# Type: cell-based
# Conditions: compound at 3.6 μM, 2 hrs, IFNβ expression normalized against GAPDH by the 2^-ΔΔCT method, DMSO = 1.0
# Description: Cellular activity of STING agonists was determined by mRNA levels of IFN-β in THP1 (Otwo Biotech HTX1621) cell line. THP1 cells express the naturally occurring human HAQ STING isoform (hSTING HAQ), which responses to the activation of STING agonists.
# THP1 cells were seeded into Falcon 12-well cell Culture Plate (Corning #353043) at 9×10^5 cells per well, in 1 ml complete culture medium (RPMI-1640, GIBCO #C1187500BT) containing 10% heat inactivated FBS (GIBCO #10099141C), 1% Pen-Strep (HyClone SV30010) and incubated at 37° ΔC, 5% CO2 overnight. On day 2, compound (final concentration at 3.6 μM) or DMSO (0.1%, Sigma Aldrich #8418) was added to THP1 cells and further incubated for 2 hrs min at 37° ΔC, 5% CO2. Cells were then collected for RNA extraction.
# Total RNA was extracted with TRIzol reagent (Invitrogen #15596026) and […] was used to synthesize first-strand cDNA with Maxima First Strand cDNA Synthesis Kit (TAKARA #RR036A). Quantitative PCR was performed with Maxima SYBR Green qPCR Master Mix (ABI #4367659, USA). The primer sequences used were as follows: GAPDH (5′-[…]-3′, 5′-[…]-3′). INFP3 (5′-[…]-3′,5′-[…]-3′) Real-time PCR was performed on QuantStudio™ 5 Real-Time PCR System (Thermo Fisher). Relative expression levels of IFNβ gene were normalized against the level of GAPDH expression by the 2^−ΔΔCT method. Each PCR reaction was performed in triplicates.
# T1 sequence (Q86WV6 whole entry R71H/G230A/H232R/R293Q, canonical isoform): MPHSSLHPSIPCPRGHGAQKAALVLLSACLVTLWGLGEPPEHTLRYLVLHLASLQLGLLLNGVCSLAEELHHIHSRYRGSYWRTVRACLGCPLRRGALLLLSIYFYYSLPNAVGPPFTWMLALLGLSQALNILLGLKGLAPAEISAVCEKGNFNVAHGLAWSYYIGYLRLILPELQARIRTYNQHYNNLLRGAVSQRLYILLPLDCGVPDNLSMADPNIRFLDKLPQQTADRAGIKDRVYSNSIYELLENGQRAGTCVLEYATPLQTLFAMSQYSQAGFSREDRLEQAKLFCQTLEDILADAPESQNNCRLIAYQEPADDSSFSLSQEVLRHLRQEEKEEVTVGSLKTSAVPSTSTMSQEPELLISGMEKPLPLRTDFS
row,Relative mRNA INFβ/GAPDH THP 1,SMILES
1,1261.9,"CC1COc2c(F)c(F)cc3c(=O)c(CN(Cc4ccncc4)[C@H]4CCCN(c5ccc(N)nc5)C4)cn1c23 (stereo partly drawn) [Compound 2, 6-((((S)-1-(6-aminopyridin-3-yl)piperidin-3-yl)(pyridin-4-ylmethyl)amino)methyl)-9,10-difluoro-3-methyl-2H-[1,4]oxazino[2,3,4-ij]quinolin-7(3H)-one]"
2,1356.3,"Cc1cc(CN(Cc2cn3c4c(c(F)c(F)cc4c2=O)OCC3C)[C@H]2CCCN(c3ccc(N)nc3)C2)ccn1 (stereo partly drawn) [Compound 3, 6-((((S)-1-(6-aminopyridin-3-yl)piperidin-3-yl)((2-methylpyridin-4-yl)methyl)amino)methyl)-9,10-difluoro-3-methyl-2H-[1,4]oxazino[2,3,4-ij]quinolin-7(3H)-one]"
3,587.4,"COc1cc(CN(Cc2cn3c4c(c(F)c(F)cc4c2=O)OCC3C)[C@H]2CCCN(c3ccc(N)nc3)C2)c(Cl)cn1 (stereo partly drawn) [Compound 4, 6-((((S)-1-(6-aminopyridin-3-yl)piperidin-3-yl)((5-chloro-2-methoxypyridin-4-yl)methyl)amino)methyl)-9,10-difluoro-3-methyl-2H-[1,4]oxazino[2,3,4-ij]quinolin-7(3H)-one]"
4,1627.5,"COc1cc(CN(Cc2cn3c4c(c(F)c(F)cc4c2=O)OC[C@H]3C)[C@H]2CCCN(c3ccc(N)nc3)C2)ccn1 [Compound 5, (R)-6-((((S)-1-(6-aminopyridin-3-yl)piperidin-3-yl)((2-methoxypyridin-4-yl)methyl)amino)methyl)-9,10-difluoro-3-methyl-2H-[1,4]oxazino[2,3,4-ij]quinolin-7(3H)-one]"
5,1595.2,"COc1cc(CN(Cc2cn3c4c(c(F)c(F)cc4c2=O)OC[C@@H]3C)[C@H]2CCCN(c3ccc(N)nc3)C2)ccn1 [Compound 6, (S)-6-((((S)-1-(6-aminopyridin-3-yl)piperidin-3-yl)((2-methoxypyridin-4-yl)methyl)amino)methyl)-9,10-difluoro-3-methyl-2H-[1,4]oxazino[2,3,4-ij]quinolin-7(3H)-one]"
6,65.3,"COc1cc(CN(Cc2cn3c4c(c(F)c(F)cc4c2=O)OCC3C)[C@H]2CCCN(c3ccc(NC(C)=O)nc3)C2)ccn1 (stereo partly drawn) [Compound 7, N-(5-((3S)-3-(((9,10-difluoro-3-methyl-7-oxo-3,7-dihydro-2H-[1,4]oxazino[2,3,4-ij]quinolin-6-yl)methyl)((2-methoxypyridin-4-yl)methyl)amino)piperidin-1-yl)pyridin-2-yl)acetamide]"
7,332.6,"Cc1ccc(N2CCC[C@H](N(Cc3ccnc(C)c3)Cc3cn4c5c(c(F)c(F)cc5c3=O)OCC4C)C2)cn1 (stereo partly drawn) [Compound 9, 9,10-difluoro-3-methyl-6-((((S)-1-(6-methylpyridin-3-yl)piperidin-3-yl)((2-methylpyridin-4-yl)methyl)amino)methyl)-2H-[1,4]oxazino[2,3,4-ij]quinolin-7(3H)-one]"
8,336.8,"Cc1cc(CN(Cc2cn3c4c(c(F)c(F)cc4c2=O)OCC3C)[C@H]2CCCN(c3cccnc3)C2)ccn1 (stereo partly drawn) [Compound 10, 9,10-difluoro-3-methyl-6-((((2-methylpyridin-4-yl)methyl)((S)-1-(pyridin-3-yl)piperidin-3-yl)amino)methyl)-2H-[1,4]oxazino[2,3,4-ij]quinolin-7(3H)-one]"
9,65.6,"Cc1ccc(N2CCC[C@H](N(Cc3ccnc(N)c3)Cc3cn4c5c(c(F)c(F)cc5c3=O)OCC4C)C2)cn1 (stereo partly drawn) [Compound 11, 6-((((2-aminopyridin-4-yl)methyl)((S)-1-(6-methylpyridin-3-yl)piperidin-3-yl)amino)methyl)-9,10-difluoro-3-methyl-2H-[1,4]oxazino[2,3,4-ij]quinolin-7(3H)-one]"

row,SMILES,Relative mRNA INFβ/GAPDH THP 1
1,"COc1cc(CCN(Cc2cn3c4c(c(F)c(F)cc4c2=O)OCC3C)[C@H]2CCCN(c3ccc(N)nc3)C2)ccn1 (stereo partly drawn) [Compound 8, 6-((((S)-1-(6-aminopyridin-3-yl)piperidin-3-yl)(2-(2-methoxypyridin-4-yl)ethyl)amino)methyl)-9,10-difluoro-3-methyl-2H-[1,4]oxazino[2,3,4-ij]quinolin-7(3H)-one]",5.7
